Results: PubChem BioAssay AID328 (DTP/NCI, 2004)
Several values for one entry are separate records, joined by “and”; a condition that tells them apart may be missing. Equal entries are not always repeated. Toxic doses and inconclusive results are not listed.

System: BDF1 mice, P388 leukemia ip, median survival T/C
Assay: NCI In Vivo Anticancer Drug Screen. Data for tumor model P388 Leukemia (intraperitoneal) in B6D2F1 (BDF1) mice
Conditions: endpoint: median survival time, higher = longer survival
How it was run: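 Compound-treated tumour-bearing mice were compared with vehicle-treated controls. Survival was recorded, and the value is the treated-group measurement divided by the control-group measurement (T/C).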

[1] = dose: 50.0 mg/kg/injection, schedule: Q01DX009 (ip), vehicle: saline
[2] = dose: 100.0 mg/kg/injection, schedule: Q01DX009 (ip), vehicle: saline
[3] = dose: 100.0 mg/kg/injection, schedule: Q04DX003 (ip), vehicle: saline
[4] = dose: 200.0 mg/kg/injection, schedule: Q04DX003 (ip), vehicle: saline
[5] = dose: 100.0 mg/kg/injection, schedule: Q04DX003 (ip), vehicle: saline with Tween-80
[6] = dose: 200.0 mg/kg/injection, schedule: Q04DX003 (ip), vehicle: saline with Tween-80
[7] = dose: 400.0 mg/kg/injection, schedule: Q04DX003 (ip), vehicle: saline with Tween-80
[8] = dose: 6.25 mg/kg/injection, schedule: Q01DX009 (ip), vehicle: Klucel (hydroxypropylcellulose) (HPC)
[9] = dose: 12.5 mg/kg/injection, schedule: Q01DX009 (ip), vehicle: Klucel (hydroxypropylcellulose) (HPC)
[10] = dose: 25.0 mg/kg/injection, schedule: Q01DX009 (ip), vehicle: Klucel (hydroxypropylcellulose) (HPC)
[11] = dose: 50.0 mg/kg/injection, schedule: Q01DX009 (ip), vehicle: saline with Tween-80

For `CC(C)CCC[C@@H](C)[C@H]1CC[C@H]2[C@@H]3CC=C4C[C@@H](OC(=O)Cc5ccc(N(CCCl)CCCl)cc5)CC[C@]4(C)[C@H]3CC[C@]12C`, the T/C (dose: 6.25 mg/kg/injection, schedule: Q01DX010 (sc), vehicle: steriod suspending solution) was 87 % of control, the T/C (dose: 12.5 mg/kg/injection, schedule: Q01DX010 (sc), vehicle: steriod suspending solution) was 91 % of control and the T/C (dose: 25.0 mg/kg/injection, schedule: Q01DX010 (sc), vehicle: steriod suspending solution) was 91 % of control. The T/C (dose: 50.0 mg/kg/injection, schedule: Q01DX010 (oral), vehicle: steriod suspending solution) was 104 % of control, the T/C (dose: 50.0 mg/kg/injection, schedule: Q01DX010 (sc), vehicle: steriod suspending solution) was 92 % of control and the T/C (dose: 100.0 mg/kg/injection, schedule: Q01DX010 (oral), vehicle: steriod suspending solution) was 118 % of control. For the same compound, the T/C (dose: 100.0 mg/kg/injection, schedule: Q01DX010 (sc), vehicle: steriod suspending solution) was 111 % of control, the T/C (dose: 200.0 mg/kg/injection, schedule: Q01DX010 (sc), vehicle: steriod suspending solution) was 107 % of control and the T/C (dose: 400.0 mg/kg/injection, schedule: Q01DX010 (oral), vehicle: steriod suspending solution) was 172 % of control. The T/C (dose: 400.0 mg/kg/injection, schedule: Q01DX010 (sc), vehicle: steriod suspending solution) was 100 % of control and the T/C (dose: 800.0 mg/kg/injection, schedule: Q01DX010 (oral), vehicle: steriod suspending solution) was 118 % of control.

For `CC(O)C(O)C(N)CC=O` (stereo not drawn), the T/C (dose: 1.25 mg/kg/injection, schedule: Q01DX001 (ip), vehicle: saline) was 100 % of control and 110 % of control, the T/C (dose: 2.5 mg/kg/injection, schedule: Q01DX001 (ip), vehicle: saline) was 100 % of control and 110 % of control and the T/C (dose: 5.0 mg/kg/injection, schedule: Q01DX001 (ip), vehicle: saline) was 100 % of control and 110 % of control. For the same compound, the T/C (dose: 10.0 mg/kg/injection, schedule: Q01DX001 (ip), vehicle: saline) was 100 % of control and 105 % of control.

With `CC(C)(C)N=Cc1ccccc1O.CC(C)(C)N=Cc1ccccc1O.[Cu]` the T/C (dose: 6.25 mg/kg/injection, schedule: Q04DX003 (ip), vehicle: saline) was 100 % of control, the T/C (dose: 12.5 mg/kg/injection, schedule: Q04DX003 (ip), vehicle: saline) was 90 % of control and the T/C (dose: 25.0 mg/kg/injection, schedule: Q04DX003 (ip), vehicle: saline) was 95 % of control.

With `CC(C)C(=O)c1ccc(-c2ccccc2)cc1` the T/C (dose: 12.5 mg/kg/injection, schedule: Q01DX009 (ip), vehicle: water) was 105 % of control, the T/C (dose: 25.0 mg/kg/injection, schedule: Q01DX009 (ip), vehicle: water) was 113 % of control and the T/C (dose: 25.0 mg/kg/injection, schedule: Q04DX003 (ip), vehicle: water) was 97 % of control. The T/C (dose: 50.0 mg/kg/injection, schedule: Q01DX009 (ip), vehicle: water) was 102 % of control, the T/C (dose: 50.0 mg/kg/injection, schedule: Q04DX003 (ip), vehicle: water) was 101 % of control and the T/C (dose: 100.0 mg/kg/injection, schedule: Q01DX009 (ip), vehicle: water) was 111 % of control. The T/C (dose: 100.0 mg/kg/injection, schedule: Q04DX003 (ip), vehicle: water) was 97 % of control, the T/C (dose: 200.0 mg/kg/injection, schedule: Q01DX009 (ip), vehicle: water) was 102 % of control and the T/C (dose: 200.0 mg/kg/injection, schedule: Q04DX003 (ip), vehicle: water) was 92 % of control. For the same compound, the T/C (dose: 400.0 mg/kg/injection, schedule: Q01DX009 (ip), vehicle: water) was 119 % of control and the T/C (dose: 400.0 mg/kg/injection, schedule: Q04DX003 (ip), vehicle: water) was 89 % of control.

For `CCCCCCCCCCCCCCCCCCSc1ccccc1`, the T/C (dose: 6.25 mg/kg/injection, schedule: Q04DX003 (ip), vehicle: saline sonified) was 110 % of control, the T/C (dose: 12.5 mg/kg/injection, schedule: Q04DX003 (ip), vehicle: saline sonified) was 100 % of control and the T/C (dose: 25.0 mg/kg/injection, schedule: Q04DX003 (ip), vehicle: saline sonified) was 110 % of control.

For `CC(O)C1CCCNC1` (stereo not drawn), the T/C [1] was 110 % of control, the T/C [2] was 100 % of control and the T/C [3] was 108 % of control. The T/C [4] was 104 % of control.

For `Nc1ccc(/C=C/c2ccnc3ccccc23)cc1`, the T/C (dose: 3.13 mg/kg/injection, schedule: Q04DX003 (ip), vehicle: saline with Tween-80) was 109 % of control, the T/C (dose: 6.25 mg/kg/injection, schedule: Q04DX003 (ip), vehicle: saline with Tween-80) was 109 % of control and the T/C (dose: 12.5 mg/kg/injection, schedule: Q01DX009 (ip), vehicle: saline with Tween-80) was 112 % of control. For the same compound, the T/C (dose: 12.5 mg/kg/injection, schedule: Q04DX003 (ip), vehicle: saline with Tween-80) was 109 % of control and the T/C (dose: 25.0 mg/kg/injection, schedule: Q01DX009 (ip), vehicle: saline with Tween-80) was 91 % of control.

For `CCOC(=O)Nc1cc(NC(c2ccccc2)c2ccccc2)c2[nH]cnc2n1`, the T/C (dose: 15.0 mg/kg/injection, schedule: Q04DX003 (ip), vehicle: saline with Tween-80) was 87 % of control and the T/C (dose: 60.0 mg/kg/injection, schedule: Q04DX003 (ip), vehicle: saline with Tween-80) was 108 % of control.

With `O=C(O)C(Cc1ccccc1)N=Cc1c(O)ccc2ccccc12` (stereo not drawn) the T/C [5] was 105 % of control, the T/C [6] was 114 % of control and the T/C [7] was 89 % of control.

With `CC(=O)Nc1cc2c(cc1[N+](=O)[O-])-c1ccc([N+](=O)[O-])cc1C2` the T/C [8] was 89 % of control, the T/C [9] was 97 % of control and the T/C [10] was 89 % of control and 91 % of control.

`CCc1ccccc1NC(=O)c1ccccc1Cl` was tested, and the T/C (dose: 100.0 mg/kg/injection, schedule: Q04DX003 (ip), vehicle: other) was 109 % of control, the T/C (dose: 200.0 mg/kg/injection, schedule: Q04DX003 (ip), vehicle: other) was 104 % of control and the T/C (dose: 400.0 mg/kg/injection, schedule: Q04DX003 (ip), vehicle: other) was 90 % of control.

`COc1ccc2nc3cc(Cl)ccc3c(NCCCNCCCCNCCCNc3c4ccc(Cl)cc4nc4ccc(OC)cc34)c2c1` was tested, and the T/C (dose: 1.25 mg/kg/injection, schedule: Q01DX009 (ip), vehicle: saline with Tween-80) was 116 % of control and the T/C (dose: 2.5 mg/kg/injection, schedule: Q01DX009 (ip), vehicle: saline with Tween-80) was 107 % of control.

`CCCNC(=O)Nc1cc(Cl)ccc1OC` was tested, and the T/C [5] was 95 % of control and the T/C [7] was 95 % of control.

In the case of `O=C(O)C(/C=N\Nc1ccccc1)=N\Nc1ccccc1`, the T/C (dose: 37.5 mg/kg/injection, schedule: Q01DX009 (ip), vehicle: saline with Tween-80) is reported as 110 % of control, the T/C (dose: 75.0 mg/kg/injection, schedule: Q01DX009 (ip), vehicle: saline with Tween-80) is reported as 115 % of control and the T/C (dose: 150.0 mg/kg/injection, schedule: Q01DX009 (ip), vehicle: saline with Tween-80) is reported as 118 % of control.

With `OCCNCCNCC[OH2+].OCCNCCNCC[OH2+].[Ni+2].[O-][Cl+3]([O-])([O-])[O-]` the T/C [1] was 92 % of control.

For `Cc1nnc2sc3c(Cl)c4nn5c(C)nnc5sc4c(Cl)c3nn12`, the T/C [11] was 92 % of control and the T/C (dose: 100.0 mg/kg/injection, schedule: Q01DX009 (ip), vehicle: saline with Tween-80) was 100 % of control.

In the case of `OC(CCCCl)CC(O)(C(F)(F)F)C(F)(F)F` (stereo not drawn), the T/C [5] is reported as 100 % of control and the T/C [6] is reported as 109 % of control.

For `CC(C(=O)c1ccc(Cl)cc1)C(O)(C(F)(F)F)C(F)(F)F` (stereo not drawn), the T/C (dose: 100.0 mg/kg/injection, schedule: Q01DX001 (ip), vehicle: Klucel (hydroxypropylcellulose) (HPC)) was 100 % of control, the T/C (dose: 200.0 mg/kg/injection, schedule: Q01DX001 (ip), vehicle: Klucel (hydroxypropylcellulose) (HPC)) was 113 % of control and the T/C (dose: 400.0 mg/kg/injection, schedule: Q01DX001 (ip), vehicle: Klucel (hydroxypropylcellulose) (HPC)) was 113 % of control.

For `CCOC(=O)c1cnn(C(N)=S)c1N`, the T/C [11] was 90 % of control, the T/C (dose: 50.0 mg/kg/injection, schedule: Q04DX003 (ip), vehicle: saline with Tween-80) was 104 % of control and the T/C (dose: 66.0 mg/kg/injection, schedule: Q04DX003 (ip), vehicle: saline with Tween-80) was 104 % of control. The T/C [5] was 90 % of control and 104 % of control, the T/C (dose: 150.0 mg/kg/injection, schedule: Q04DX003 (ip), vehicle: saline with Tween-80) was 90 % of control and the T/C [6] was 100 % of control.

In the case of `N#CC1=C(N)CCCC1`, the T/C [1] is reported as 97 % of control, the T/C [2] is reported as 99 % of control and the T/C (dose: 200.0 mg/kg/injection, schedule: Q01DX009 (ip), vehicle: saline) is reported as 102 % of control.

For `S=c1c2[nH]cnc2ncn1CCSC1=NC=NC2=NC=NC21` (stereo not drawn), the T/C [5] was 100 % of control, the T/C [6] was 95 % of control and the T/C [7] was 109 % of control.

In the case of `CC(=O)Oc1cc([N+](=O)[O-])ccc1C(=O)O`, the T/C [5] is reported as 104 % of control, the T/C [6] is reported as 108 % of control and the T/C [7] is reported as 100 % of control.

In the case of `COc1ccc(OCC(O)CN2CCN(c3ccc(Cl)cc3)CC2)cc1` (stereo not drawn), the T/C [8] is reported as 100 % of control, the T/C [9] is reported as 95 % of control and the T/C [10] is reported as 86 % of control.

With `ClCCOCCOc1ccc(C2CCCCC2)cc1` the T/C [3] was 100 % of control, the T/C [4] was 100 % of control and the T/C (dose: 400.0 mg/kg/injection, schedule: Q04DX003 (ip), vehicle: saline) was 100 % of control.
